Data taken from DBAASP.
Converted amounts (≈) assume the structure as drawn. “And” between values parts separate entries of the source, which are not always exact repeats. Identical values can stand only once.

Experiments:
Test in all cases: ≥ marks a high value that may be exact or a test limit, other limits are often not marked, values filed in µg/mL are converted to µM
[1] = test system: Escherichia coli BL21(DE3)
[2] = test system: Klebsiella pneumoniae ATCC 13883
Escherichia coli C600 = test system: Escherichia coli C600
[3] = test system: Pseudomonas aeruginosa PAO1
[4] = test system: Staphylococcus aureus 209P
[5] = test system: Aspergillus flavus KCTC 6905
[6] = test system: Candida albicans CCARM 14001
[7] = test system: Candida albicans CCARM 14004
[8] = test system: Candida albicans CCARM 14007
[9] = test system: Candida albicans CCARM 14020
[10] = test system: Candida albicans KCTC 7270
[11] = test system: Candida krusei CCARM 14017
[12] = test system: Candida parapsilosis CCARM 14016
[13] = test system: Colletotrichum gloeosporioides KCTC 6169
[14] = test system: Fusarium graminearum KCTC 16656
[15] = test system: Fusarium oxysporum KCTC 16909
[16] = test system: Fusarium solani KCTC 6326
[17] = test system: Fusarium verticillioides KCTC 6149
[18] = test system: Trichoderma virens KCTC 16924
[19] = test system: Trichoderma viride KCTC 16992
[20] = test system: Trichophyton rubrum KCTC 6345
[21] = test system: Candida albicans NCYC 1467
[22] = test system: Escherichia coli NCTC 10418
[23] = test system: Pseudomonas aeruginosa ATCC 27853
[24] = test system: Staphylococcus aureus ATCC 12493
[25] = test system: Staphylococcus aureus NCTC 10788
[26] = test system: Escherichia coli ATCC 25922
[27] = test system: Escherichia coli KpC+001812446
[28] = test system: Klebsiella pneumoniae KpC+001825971
[29] = test system: Staphylococcus aureus ATCC 25923

SMILES	MIC [2]	MIC [5]	MIC [6]	MIC [7]	MIC [8]	MIC [9]	MIC [10]	MIC [11]	MIC [12]	MIC [13]	MIC [14]	MIC [15]	MIC [16]	MIC [17]	MIC [18]	MIC [19]	MIC [20]	also measured
CC[C@H](C)[C@H](NC(=O)[C@H](CC(C)C)NC(=O)[C@H](CCCN=C(N)N)NC(=O)[C@@H](N)CCCN=C(N)N)C(=O)N[C@@H](CCCN=C(N)N)C(=O)N[C@@H](CC(C)C)C(=O)N[C@@H](Cc1c[nH]c2ccccc12)C(=O)N[C@@H](CC(C)C)C(=O)N[C@@H](CCCN=C(N)N)C(=O)N[C@@H](CC(C)C)C(=O)N[C@@H](CC(C)C)C(=O)N[C@@H](CCCN=C(N)N)C(N)=O [RRLIRLWLRLLR]	4 µM (≈ 6.65 µg/mL)																	MIC [1]: 8 µM and 4 µM
CC(C)[C@@H]1NC(=O)[C@H](CCCN=C(N)N)NC(=O)[C@H](Cc2ccccc2)NC(=O)[C@@H](NC(=O)[C@H](Cc2c[nH]c3ccccc23)NC(=O)[C@@H](N)CCCCN)CSSC[C@@H](C(=O)N[C@@H](CCCN=C(N)N)C(=O)O)NC(=O)[C@H](CCCN=C(N)N)NC(=O)[C@H](CCCN=C(N)N)NC(=O)[C@H](Cc2ccc(O)cc2)NC(=O)[C@@H]2CSSC[C@H](NC1=O)C(=O)N[C@@H](Cc1ccc(O)cc1)C(=O)N[C@@H](CCCN=C(N)N)C(=O)NCC(=O)N[C@@H](CCCN=C(N)N)C(=O)N2 [KWCFRVCYRGRCYRRCR]																		MIC (Escherichia coli C600): 1.56 µM (≈ 3.6 µg/mL); MIC [3]: 6.25 µM (≈ 14.4 µg/mL); MIC [4]: 1.56 µM (≈ 3.6 µg/mL)
NCCCC[C@H](NC(=O)[C@H](CCCCN)NC(=O)[C@@H](N)Cc1cnc[nH]1)C(N)=O [HKK]		≥ 256 µM	≥ 1020 µM	≥ 1020 µM	≥ 1020 µM	≥ 1020 µM	≥ 1020 µM	≥ 512 µM	≥ 1020 µM	≥ 1020 µM	≥ 512 µM	≥ 256 µM	≥ 256 µM	≥ 256 µM	≥ 512 µM	≥ 256 µM	≥ 512 µM	
NCCCC[C@H](NC(=O)[C@H](CCCCN)NC(=O)[C@H](Cc1cnc[nH]1)NC(=O)[C@H](CCCCN)NC(=O)[C@H](CCCCN)NC(=O)[C@H](Cc1cnc[nH]1)NC(=O)[C@H](CCCCN)NC(=O)[C@H](CCCCN)NC(=O)[C@H](Cc1cnc[nH]1)NC(=O)[C@H](CCCCN)NC(=O)[C@H](CCCCN)NC(=O)[C@@H](N)Cc1cnc[nH]1)C(N)=O [HKKHKKHKKHKK]		8 µM (≈ 12.7 µg/mL)	≥ 32 µM	≥ 32 µM	≥ 32 µM	≥ 32 µM	≥ 32 µM	4 µM (≈ 6.36 µg/mL)	≥ 32 µM	2 µM (≈ 3.18 µg/mL)	16 µM (≈ 25.5 µg/mL)	4 µM (≈ 6.36 µg/mL)	4 µM (≈ 6.36 µg/mL)	4 µM (≈ 6.36 µg/mL)	16 µM (≈ 25.5 µg/mL)	4 µM (≈ 6.36 µg/mL)	16 µM (≈ 25.5 µg/mL)	
CC[C@H](C)[C@@H]1NC(=O)[C@H](CO)NC(=O)[C@H](CCCCN)NC(=O)[C@H]([C@@H](C)O)NC(=O)[C@H](Cc2c[nH]c3ccccc23)NC(=O)[C@@H](NC(=O)CNC(=O)[C@H](CCCN=C(N)N)NC(=O)[C@H](CC(C)C)NC(=O)[C@H](C)N)CSSC[C@@H](C(=O)N2CCC[C@H]2C(N)=O)NC(=O)[C@@H]2CCCN2C(=O)[C@H](CCCCN)NC(=O)[C@@H]2CCCN2C(=O)[C@@H]2CCCN2C1=O [ALRGCWTKSIPPKPCP]																		MIC [21]: ≥ 512 µM; MIC [22]: ≥ 128 µM; MIC [23]: > 512 µM; MIC [24]: ≥ 512 µM; MIC [25]: ≥ 128 µM
CC[C@H](C)[C@H](NC(=O)[C@H](CCCCN)NC(=O)[C@H](CCCCN)NC(=O)[C@H](CC(C)C)NC(=O)[C@H](CO)NC(=O)CNC(=O)[C@H](CO)NC(=O)CNC(=O)[C@H](CO)NC(=O)CNC(=O)[C@H](CO)NC(=O)CN)C(=O)N[C@@H](Cc1ccccc1)C(=O)N[C@@H](CCCCN)C(=O)N[C@@H](CCCCN)C(=O)N1CCC[C@H]1C(=O)N[C@@H](CCSC)C(=O)N[C@H](C(=O)N[C@H](C(=O)NCC(=O)N[C@H](C(=O)N[C@H](C(=O)N[C@H](C(=O)N1CCC[C@H]1C(=O)N[C@@H](Cc1ccccc1)C(N)=O)[C@@H](C)CC)[C@@H](C)O)C(C)C)[C@@H](C)CC)C(C)C [GSGSGSGSLKKIFKKPMVIGVTIPF]	0.789 µM (≈ 2 µg/mL)																	MIC [26]: 0.789 µM (≈ 2 µg/mL); MIC [27]: 0.789 µM (≈ 2 µg/mL); MIC [28]: 6.31 µM (≈ 16 µg/mL); MIC [29]: 25.2 µM (≈ 64 µg/mL)
